Assays:
[1] = Stability in human feces (azo reduction in feces homogenate); format: in vitro ADME; conditions: pH 6.8, 37° C., under nitrogen
Procedure: Biological Data 2: Stability in Human Feces
Accordingly, selected azo compounds of the invention were exposed to human feces under conditions suitable to promote azo reduction.
The human feces from two donors were homogenized in isotonic phosphate buffered saline (pH 6.8) with a ratio of 1:10 (w/v). The tubes were sealed using sealing film. Test article was dissolved in isotonic phosphate buffer (pH 6.8) to form a working solution of 20 μM (if the solubility allows). An aliquot of working solution (50 μL) was added to the human feces homogenate (50 μL) for each time point (0, 1, 2, 4, 6 and 24 h) in duplicate and placed under nitrogen for about 1 minute in order to exhaust air, and then incubated at 37° C. After incubation at each pre-set time point, 1000 μL acetonitrile containing internal standard w as added to each tube to quench reaction. Samples were vortexed and centrifuged at 3700 rpm for 10 min and the supernatant was transferred for analysis (and diluted where necessary). The concentrations of test article and its metabolite (example 3) in the supernatants were determined using LC-MS/MS method. Sulfasalazine was used as a positive control. All incubations were performed in duplicate.

AhR = biological target: T1, AhR (Homo sapiens, UniProt P35869); assay: HT29 AhR Reporter Assay (HT29-Lucia AhR cells, QUANTI-Luc luminescence); format: cell-based; conditions: HT29-Lucia AhR cells
T1 construct: HT29-Lucia AhR cells were purchased from Invivogen (cat #ht21-ahr); host or cells: HT29-Lucia AhR cells
T1 sequence (P35869 11-848): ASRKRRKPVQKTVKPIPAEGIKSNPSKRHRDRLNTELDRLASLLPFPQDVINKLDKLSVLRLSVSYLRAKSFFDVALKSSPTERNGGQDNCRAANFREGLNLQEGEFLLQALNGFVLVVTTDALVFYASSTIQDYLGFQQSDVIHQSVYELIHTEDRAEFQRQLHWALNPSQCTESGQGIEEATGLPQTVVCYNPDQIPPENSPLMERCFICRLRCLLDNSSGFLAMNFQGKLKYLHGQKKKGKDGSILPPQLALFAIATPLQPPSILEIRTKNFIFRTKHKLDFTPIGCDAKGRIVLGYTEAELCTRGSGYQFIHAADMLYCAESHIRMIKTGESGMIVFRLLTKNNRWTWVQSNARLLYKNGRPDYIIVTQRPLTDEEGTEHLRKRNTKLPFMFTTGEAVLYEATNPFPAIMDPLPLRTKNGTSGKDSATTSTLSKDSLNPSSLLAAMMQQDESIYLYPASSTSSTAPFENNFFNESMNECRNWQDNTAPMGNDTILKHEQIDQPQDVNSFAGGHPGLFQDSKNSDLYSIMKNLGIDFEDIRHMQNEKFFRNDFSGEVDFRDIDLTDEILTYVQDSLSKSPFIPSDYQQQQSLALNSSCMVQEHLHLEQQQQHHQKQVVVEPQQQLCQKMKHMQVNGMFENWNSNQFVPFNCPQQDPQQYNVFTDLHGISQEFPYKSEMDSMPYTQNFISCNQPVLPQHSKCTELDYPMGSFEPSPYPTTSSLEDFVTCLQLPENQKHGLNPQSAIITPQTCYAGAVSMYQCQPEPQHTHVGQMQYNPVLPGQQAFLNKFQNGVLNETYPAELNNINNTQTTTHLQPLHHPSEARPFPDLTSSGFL
Procedure: Biological Data 1: HT29 AhR Reporter Assay HT29-Lucia AhR cells were purchased from Invivogen (cat #ht21-ahr). […] The cell suspension was removed from growth medium and rinsed gently with pre-warmed PBS (10 mL). Pre-warmed Trypsin (1 mL) was added, and cells were held at 30° C. for about 5 min and then detached by pipette. The dissociated cell clumps were gently pipetted up and down. The cells were resuspended in pre-warmed detection medium (DMEM, 10% FBS (30 min at 56° C.), 100 U/ml penicillin, 100 μg/ml streptomycin, and test article or vehicle) and counted. A cell suspension of ˜500,000 cells/mL in Detection medium was prepared. […] Samples (20 μL/well) were pipetted into a 96-well white (opaque), and QUANTI-Luc™ (50 μL/well) was added. The plate was gently tapped and then read in a luminometer (0.1 s reading time).

Row | Structure (SMILES) | % of parent remaining after incubation for 6 h [1] | EC50 (AhR; 18-24 h, EC50 = concentration to reach half of maximum efficacy of reference compound VAF347) | Emax (AhR; % efficacy = 100%*(TA-BG)/(Ref-BG), Ref = VAF347, read-out: HT29 AhR % efficacy)
1 | O=C(O)c1ccc(/N=N/c2ccccc2-c2ccnc(Nc3ccc(C(F)(F)F)cc3)n2)c(O)c1 [Example 40, (E)-3-hydroxy-4-((2-(2-((4-(trifluoromethyl)phenyl)amino)pyrimidin-4-yl)phenyl)diazenyl)benzoic acid] | 22% |  | 
2 | N[C@H](Cc1cc(/N=N/c2ccccc2-c2ccnc(Nc3ccc(C(F)(F)F)cc3)n2)ccc1O)C(=O)O [Example 49, (R,E)-2-amino-3-(2-hydroxy-5-((2-(2-((4-(trifluoromethyl)phenyl)amino)pyrimidin-4-yl)phenyl)diazenyl)phenyl)propanoic acid] | 33% |  | 
3 | O=C(O)c1cc(O)cc(/N=N/c2ccccc2-c2ccnc(Nc3ccc(C(F)(F)F)cc3)n2)c1 [Example 55, (E)-3-hydroxy-5-((2-(2-((4-(trifluoromethyl)phenyl)amino)pyrimidin-4-yl)phenyl)diazenyl)benzoic acid] | 76% |  | 
4 | O=C(O)c1cc(/C=C/c2ccccc2-c2ccnc(Nc3ccc(C(F)(F)F)cc3)n2)ccc1O [Example 59, (E)-2-hydroxy-5-(2-(2-((4-(trifluoromethyl)phenyl)amino)pyrimidin-4-yl)styryl)benzoic acid, reference compound] | 94% | 1420 nM | 74%

Next, values leading:

Row | % of parent remaining after incubation for 6 h [1] | EC50 (AhR; 18-24 h, EC50 = concentration to reach half of maximum efficacy of reference compound VAF347) | Emax (AhR; % efficacy = 100%*(TA-BG)/(Ref-BG), Ref = VAF347, read-out: HT29 AhR % efficacy) | Structure (SMILES)
5 | 98% |  |  | COc1cc(/N=N/c2ccccc2-c2ccnc(Nc3ccc(C(F)(F)F)cc3)n2)ccc1C(=O)O [Example 42, (E)-2-methoxy-4-((2-(2-((4-(trifluoromethyl)phenyl)amino)pyrimidin-4-yl)phenyl)diazenyl)benzoic acid]
6 | 74% |  |  | COc1ccc(/N=N/c2ccccc2-c2ccnc(Nc3ccc(C(F)(F)F)cc3)n2)cc1C(=O)O [Example 43, (E)-2-methoxy-5-((2-(2-((4-(trifluoromethyl)phenyl)amino)pyrimidin-4-yl)phenyl)diazenyl)benzoic acid]
7 | 10% |  |  | O=S(=O)(O)c1cc(/N=N/c2ccccc2-c2ccnc(Nc3ccc(C(F)(F)F)cc3)n2)ccc1O [Example 50, (E)-2-hydroxy-5-((2-(2-((4-(trifluoromethyl)phenyl)amino)pyrimidin-4-yl)phenyl)diazenyl)benzenesulfonic acid]
